Laboratory results published in patent EP0620225B1, “Cephalosporin derivatives” (Basilea Pharmaceutica AG, priority 1993, dated 1994).
Structures can show the parent of a compound that is named as a salt.

Columns and labels:
Escherichia coli 25922 = experiment: Efficacy against systemic infections (septicemia) in mice; format: in vivo; conditions: 96 h, Escherichia coli 25922, po (orally) 1 and 3 h after challenge, survival day 4
In short: (§1)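 Swiss albino mice (16–20 g) infected i.p. with 4–10× the 48-h LD50 of each strain; compound given p.o. or s.c. at 1 and 3 h post-challenge, plus 5 h for P. aeruginosa BA. Five mice per group; ED50 (mg/kg) by probit analysis of day-4 survival.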

[1] = tested on: Streptococcus pyogenes 15; experiment: as above; format: in vivo; conditions: 96 h, Streptococcus pyogenes 15, po (orally) 1 and 3 h after challenge, survival day 4
In short: as §1

[2] = tested on: Pseudomonas aeruginosa BA; experiment: as above; format: in vivo; conditions: 96 h, sc (subcutaneous) 1, 3 and 5 h after challenge, survival day 4
In short: as §1

[3] = tested on: Ps. aeruginosa ATCC 27853; experiment: MIC, agar dilution method in Mueller Hinton agar; format: cell-based; conditions: Pseudomonas aeruginosa, ATCC27853, read-out: Minimum Inhibiting Concentration Values
Experimental: (§2) In vitro activity was determined by minimum inhibitory concentration in a microorganism spectum by the agar dilution method in Mueller Hinton agar.

Prot. vulgaris ATCC 6380 = experiment: MIC, agar dilution method in Mueller Hinton agar; format: cell-based; conditions: Proteus vulgaris, ATCC6380, read-out: Minimum Inhibiting Concentration Values
Experimental: as §2

E. coli TEM-1 = experiment: MIC, agar dilution method in Mueller Hinton agar; format: cell-based; conditions: Escherichia coli, TEM1, read-out: Minimum Inhibiting Concentration Values
Experimental: as §2

Staph. aureus ATCC 29213 = experiment: MIC, agar dilution method in Mueller Hinton agar; format: cell-based; conditions: Staphylococcus aureus, ATCC29213, read-out: Minimum Inhibiting Concentration Values
Experimental: as §2

Ps. aeruginosa 5712 = experiment: MIC, agar dilution method in Mueller Hinton agar; format: cell-based; conditions: Pseudomonas aeruginosa, read-out: Minimum Inhibiting Concentration Values
Experimental: as §2

E. coli ATCC 25922 = experiment: MIC, agar dilution method in Mueller Hinton agar; format: cell-based; conditions: Escherichia coli, ATCC25922, read-out: Minimum Inhibiting Concentration Values
Experimental: as §2

Str. pneumoniae 6301 = experiment: MIC, agar dilution method in Mueller Hinton agar; format: cell-based; conditions: Streptococcus pneumoniae, 6301, read-out: Minimum Inhibiting Concentration Values
Experimental: as §2

Staph. aureus Smith = experiment: MIC, agar dilution method in Mueller Hinton agar; format: cell-based; conditions: Staphylococcus aureus, read-out: Minimum Inhibiting Concentration Values
Experimental: as §2

Str. pyogenes 4 = experiment: MIC, agar dilution method in Mueller Hinton agar; format: cell-based; conditions: Streptococcus pyogenes, read-out: Minimum Inhibiting Concentration Values
Experimental: as §2

Compound	ED50 (Escherichia coli 25922) [mg/kg]	ED50 [1] [mg/kg]	ED50 [2] [mg/kg]	MIC [3] [µg/mL]	MIC (Prot. vulgaris ATCC 6380) [µg/mL]	MIC (E. coli TEM-1) [µg/mL]	MIC (Staph. aureus ATCC 29213) [µg/mL]	MIC (Ps. aeruginosa 5712) [µg/mL]	MIC (E. coli ATCC 25922) [µg/mL]	MIC (Str. pneumoniae 6301) [µg/mL]	MIC (Staph. aureus Smith) [µg/mL]	MIC (Str. pyogenes 4) [µg/mL]
Nc1nc(/C(=N/OCC(=O)O)C(=O)N[C@@H]2C(=O)N3C(C(=O)O)=C(/C=C4\CCN(CC(F)(F)F)C4=O)CS[C@H]23)cs1 [A, [6R-[3(E),6α,7β(Z)]]-7-[[(2-Amino-4-thiazolyl)[(carboxy-methoxy)imino]-acetyl]amino]-3-[[1-(2,2,2-trifluoroethyl)-2-oxo-3-pyrrolidinylidene]-methyl]-8-oxo-5-thia-1-aza-bicyclo[4.2.0]oct-2-ene-2-carboxylic acid disodium salt]	< 0.1	> 0.8	12	8	≤ 0.0156	0.0625	16	8	0.0625	0.0625	8	0.125
Nc1nc(/C(=N/OCC(=O)O)C(=O)N[C@@H]2C(=O)N3C(C(=O)O)=C(/C=C4\CCN(CCF)C4=O)CS[C@H]23)cs1 [B, [6R-[3(E),6α,7β(Z)]]-7-[[(2-Amino-4-thiazolyl)[(carboxy-methoxy)imino]-acetyl]amino]-3-[[1-(2-fluoroethyl)-2-oxo-3-pyrrolidinylidene]methyl]-8-oxo-5-thia-1-azabicyclo[4.2.0]-oct-2-ene-2-carboxylic acid disodium salt]	< 0.1	0.5	3.5	4	≤ 0.0156	0.0313	16	4	0.0313	0.0313	8	0.125
